Molecular target: Acetylcholinesterase (Electrophorus electricus, UniProt O42275)
Test: Inhibition of electric eel AChE by Ellman's method

Sequence of Acetylcholinesterase (O42275 whole entry): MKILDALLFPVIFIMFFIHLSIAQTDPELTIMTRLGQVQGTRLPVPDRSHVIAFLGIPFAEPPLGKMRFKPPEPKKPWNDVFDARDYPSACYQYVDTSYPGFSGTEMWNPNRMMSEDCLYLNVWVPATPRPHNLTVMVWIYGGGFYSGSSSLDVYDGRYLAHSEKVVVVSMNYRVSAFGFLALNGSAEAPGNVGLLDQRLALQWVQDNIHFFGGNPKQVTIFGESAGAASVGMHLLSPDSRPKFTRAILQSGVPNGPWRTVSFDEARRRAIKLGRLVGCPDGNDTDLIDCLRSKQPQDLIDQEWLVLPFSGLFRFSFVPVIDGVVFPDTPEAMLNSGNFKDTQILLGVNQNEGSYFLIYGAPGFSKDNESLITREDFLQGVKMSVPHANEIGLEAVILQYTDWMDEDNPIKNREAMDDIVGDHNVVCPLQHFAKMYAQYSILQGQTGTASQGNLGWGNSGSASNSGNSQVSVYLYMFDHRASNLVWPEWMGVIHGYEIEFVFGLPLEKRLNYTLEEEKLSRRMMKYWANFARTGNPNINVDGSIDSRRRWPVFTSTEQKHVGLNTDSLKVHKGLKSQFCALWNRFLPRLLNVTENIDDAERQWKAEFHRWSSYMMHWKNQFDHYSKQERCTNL

Question: How did the IC50 turn out when `C=CC[N+](C)(C)c1ccc(CCC(=O)CCc2ccc([N+](C)(C)CC=C)cc2)cc1` was run?
Answer: 0.01 µM

Question: `COc1cc(-c2cc3c(c(=O)o2)C[C@]2(O)[C@@]4(C)C(=O)C=C[C@](C)(CO)[C@]4(O)CC[C@@]2(C)O3)cc(OC)c1OC` was tested. Which IC50 did it give?
Answer: 0.79 µM

Question: Which IC50 does the source give for `COc1cc(-c2cc3c(c(=O)o2)C[C@]2(O)[C@@]4(C)C(=O)C=C[C@@](C)(CO)[C@]4(O)CC[C@@]2(C)O3)cc(OC)c1OC` [4ALPHA-(HYDROXYMETHYL)-4ALPHA-DEMETHYLTERRITREM B] here?
Answer: 0.000423 µM

— ChEMBL document CHEMBL1146438, “Structure and anti-acetylcholinesterase activity of 4 alpha-(hydroxymethyl)-4 alpha-demethylterritrem B” (J Nat Prod, 1997)
